The target in experiment [1] is T1, Serine/threonine-protein kinase 17A (Homo sapiens) (UniProt Q9UEE5).
T1 sequence (whole entry): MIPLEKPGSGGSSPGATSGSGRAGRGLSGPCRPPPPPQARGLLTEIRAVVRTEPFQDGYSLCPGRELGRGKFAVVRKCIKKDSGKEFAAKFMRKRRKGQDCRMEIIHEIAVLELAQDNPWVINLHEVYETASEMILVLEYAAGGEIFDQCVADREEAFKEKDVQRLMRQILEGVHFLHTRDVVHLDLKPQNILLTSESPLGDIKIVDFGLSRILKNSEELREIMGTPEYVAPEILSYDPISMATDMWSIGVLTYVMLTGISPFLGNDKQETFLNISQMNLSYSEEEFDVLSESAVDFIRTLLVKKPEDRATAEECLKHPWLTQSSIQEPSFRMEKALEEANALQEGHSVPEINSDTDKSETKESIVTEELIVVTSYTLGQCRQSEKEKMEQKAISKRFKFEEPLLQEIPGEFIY
As to the kind of experiment: Selectivity interaction (LanthaScreen Eu Kinase Binding Assay) EUB0001632a STK17A. Particulars: at 10 µM. On the technique in general: In TR-FRET formats the signal depends on donor and acceptor labels being close together.

The target of experiment [2] is Ribosomal protein S6 kinase alpha-6 (Homo sapiens, UniProt Q9UK32). As to the kind of experiment: Selectivity interaction (KinomeScan (DiscoverX)) EUB0000595a RPS6KA6. Particulars: at 10 µM.
Chain of Ribosomal protein S6 kinase alpha-6 (Q9UK32 whole entry): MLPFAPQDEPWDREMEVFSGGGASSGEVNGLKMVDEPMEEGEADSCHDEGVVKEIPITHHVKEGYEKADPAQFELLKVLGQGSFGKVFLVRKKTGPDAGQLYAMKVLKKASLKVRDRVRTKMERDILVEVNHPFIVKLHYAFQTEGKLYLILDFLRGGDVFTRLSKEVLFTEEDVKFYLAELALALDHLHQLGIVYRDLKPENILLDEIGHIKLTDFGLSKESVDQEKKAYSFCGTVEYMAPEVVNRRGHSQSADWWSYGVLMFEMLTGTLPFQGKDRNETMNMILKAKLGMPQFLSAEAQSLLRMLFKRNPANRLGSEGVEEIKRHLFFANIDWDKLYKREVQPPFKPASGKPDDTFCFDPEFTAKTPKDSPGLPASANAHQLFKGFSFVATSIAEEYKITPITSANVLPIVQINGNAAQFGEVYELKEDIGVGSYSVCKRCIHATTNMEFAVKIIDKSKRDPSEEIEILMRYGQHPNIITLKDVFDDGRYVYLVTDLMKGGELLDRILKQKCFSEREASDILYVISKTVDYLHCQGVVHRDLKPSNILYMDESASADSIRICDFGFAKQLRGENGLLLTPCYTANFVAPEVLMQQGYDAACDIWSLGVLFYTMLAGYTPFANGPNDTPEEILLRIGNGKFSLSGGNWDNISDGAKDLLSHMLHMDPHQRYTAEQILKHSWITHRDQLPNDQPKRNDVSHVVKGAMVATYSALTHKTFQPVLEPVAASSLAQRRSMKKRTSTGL
Experiment [3] addresses Cyclin-dependent kinase 11B (Homo sapiens) (UniProt P21127). Particulars: at 10 µM.
The target of experiment [4] is T2, Serine/threonine-protein kinase RIO1 (Homo sapiens) (UniProt Q9BRS2).
T2 sequence (whole entry): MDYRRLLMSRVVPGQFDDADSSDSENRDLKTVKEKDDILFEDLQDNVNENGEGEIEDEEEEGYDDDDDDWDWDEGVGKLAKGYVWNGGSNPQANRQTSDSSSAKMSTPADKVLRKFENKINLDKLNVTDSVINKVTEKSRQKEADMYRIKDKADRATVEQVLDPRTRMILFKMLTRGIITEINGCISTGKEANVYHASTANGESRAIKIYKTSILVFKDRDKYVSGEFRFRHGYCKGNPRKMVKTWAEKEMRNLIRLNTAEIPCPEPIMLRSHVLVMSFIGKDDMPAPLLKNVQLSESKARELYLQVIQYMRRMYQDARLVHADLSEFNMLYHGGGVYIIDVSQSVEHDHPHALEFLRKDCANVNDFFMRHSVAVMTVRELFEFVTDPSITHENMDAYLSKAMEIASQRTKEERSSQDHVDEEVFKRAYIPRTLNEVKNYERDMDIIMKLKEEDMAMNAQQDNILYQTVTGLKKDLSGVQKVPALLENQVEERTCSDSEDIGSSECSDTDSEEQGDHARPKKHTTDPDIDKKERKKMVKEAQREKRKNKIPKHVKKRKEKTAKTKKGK
Put plainly: Selectivity interaction (KinomeScan (DiscoverX)) EUB0000666a RIOK1. Particulars: at 10 µM.

The target in experiment [5] is Vascular endothelial growth factor receptor 3 (Homo sapiens, UniProt P35916). As to the kind of experiment: Selectivity interaction (KinomeScan (DiscoverX)) EUB0000607a FLT4. Particulars: at 10 µM.
Experiment [6] deals with Rho-associated protein kinase 2 (Homo sapiens, UniProt O75116). As to the kind of experiment: Selectivity interaction (Kinase panel (literature)) EUB0001199aCl ROCK2. Particulars: at 1 µM.
Experiment [7] addresses Phosphatidylinositol 4-phosphate 3-kinase C2 domain-containing subunit beta (Homo sapiens) (UniProt O00750). Put plainly: Selectivity interaction (KinomeScan (DiscoverX)) EUB0001049a PIK3C2B. Particulars: at 1 µM.
Experiment [8] deals with MAP kinase-interacting serine/threonine-protein kinase 2 (Homo sapiens, UniProt Q9HBH9). Put plainly: Selectivity interaction (Upstate Kinase Profiler service (Millipore)) EUB0000056c MKNK2. Particulars: at 1 µM.
Chain of MAP kinase-interacting serine/threonine-protein kinase 2 (Q9HBH9 whole entry, looked up): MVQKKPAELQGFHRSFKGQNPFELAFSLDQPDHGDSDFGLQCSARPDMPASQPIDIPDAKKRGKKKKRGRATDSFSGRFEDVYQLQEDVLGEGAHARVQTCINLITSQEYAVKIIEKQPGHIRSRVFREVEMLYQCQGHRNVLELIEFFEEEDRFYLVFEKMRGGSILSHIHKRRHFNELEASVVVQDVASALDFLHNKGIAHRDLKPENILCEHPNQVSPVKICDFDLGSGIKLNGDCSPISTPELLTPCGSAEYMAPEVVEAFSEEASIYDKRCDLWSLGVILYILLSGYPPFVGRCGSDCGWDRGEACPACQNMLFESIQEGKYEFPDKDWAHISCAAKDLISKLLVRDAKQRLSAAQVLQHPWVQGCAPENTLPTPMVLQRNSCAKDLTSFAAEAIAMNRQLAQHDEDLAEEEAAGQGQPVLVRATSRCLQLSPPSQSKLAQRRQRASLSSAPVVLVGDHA
In experiment [9] the target is Serine/threonine-protein kinase 25 (Homo sapiens) (UniProt O00506). As to the kind of experiment: Selectivity interaction (KinomeScan (DiscoverX)) EUB0000092b STK25. Particulars: at 10 µM.
Chain of Serine/threonine-protein kinase 25 (Homo sapiens) (O00506 whole entry, looked up): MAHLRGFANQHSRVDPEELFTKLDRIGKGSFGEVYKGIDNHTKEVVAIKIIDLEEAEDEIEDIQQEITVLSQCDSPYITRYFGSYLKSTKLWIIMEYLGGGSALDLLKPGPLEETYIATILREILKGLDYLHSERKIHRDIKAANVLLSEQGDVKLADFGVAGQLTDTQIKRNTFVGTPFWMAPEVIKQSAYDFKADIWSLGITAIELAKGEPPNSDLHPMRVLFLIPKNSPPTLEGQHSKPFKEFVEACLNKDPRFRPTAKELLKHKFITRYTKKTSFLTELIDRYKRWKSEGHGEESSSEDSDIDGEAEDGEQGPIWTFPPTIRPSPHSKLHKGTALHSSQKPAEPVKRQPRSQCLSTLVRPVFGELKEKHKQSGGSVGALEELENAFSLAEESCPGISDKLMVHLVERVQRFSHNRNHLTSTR
Experiment [10] addresses T3, Dual specificity tyrosine-phosphorylation-regulated kinase 2 (Homo sapiens) (UniProt Q92630).
T3 sequence (whole entry): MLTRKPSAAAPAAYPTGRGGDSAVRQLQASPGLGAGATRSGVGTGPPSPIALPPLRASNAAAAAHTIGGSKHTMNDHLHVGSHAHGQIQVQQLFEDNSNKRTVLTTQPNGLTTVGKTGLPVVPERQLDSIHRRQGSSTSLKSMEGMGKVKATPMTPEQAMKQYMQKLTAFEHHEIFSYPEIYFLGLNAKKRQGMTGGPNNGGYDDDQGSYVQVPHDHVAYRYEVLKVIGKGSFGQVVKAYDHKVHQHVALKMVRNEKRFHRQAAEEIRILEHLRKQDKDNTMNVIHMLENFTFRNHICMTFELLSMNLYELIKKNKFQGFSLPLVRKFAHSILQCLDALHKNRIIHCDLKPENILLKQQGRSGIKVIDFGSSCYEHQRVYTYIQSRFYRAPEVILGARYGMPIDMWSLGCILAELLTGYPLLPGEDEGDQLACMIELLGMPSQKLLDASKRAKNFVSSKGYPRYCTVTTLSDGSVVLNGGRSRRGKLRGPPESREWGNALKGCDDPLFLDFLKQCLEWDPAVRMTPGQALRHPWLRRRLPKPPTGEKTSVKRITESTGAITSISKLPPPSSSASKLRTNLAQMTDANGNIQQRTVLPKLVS
Put plainly: Selectivity interaction (Kinase panel (DSF assay)) EUB0001558a DYRK2.

The target of experiment [11] is T4, 5-hydroxytryptamine receptor 2C (Homo sapiens) (UniProt P28335).
T4 sequence (whole entry): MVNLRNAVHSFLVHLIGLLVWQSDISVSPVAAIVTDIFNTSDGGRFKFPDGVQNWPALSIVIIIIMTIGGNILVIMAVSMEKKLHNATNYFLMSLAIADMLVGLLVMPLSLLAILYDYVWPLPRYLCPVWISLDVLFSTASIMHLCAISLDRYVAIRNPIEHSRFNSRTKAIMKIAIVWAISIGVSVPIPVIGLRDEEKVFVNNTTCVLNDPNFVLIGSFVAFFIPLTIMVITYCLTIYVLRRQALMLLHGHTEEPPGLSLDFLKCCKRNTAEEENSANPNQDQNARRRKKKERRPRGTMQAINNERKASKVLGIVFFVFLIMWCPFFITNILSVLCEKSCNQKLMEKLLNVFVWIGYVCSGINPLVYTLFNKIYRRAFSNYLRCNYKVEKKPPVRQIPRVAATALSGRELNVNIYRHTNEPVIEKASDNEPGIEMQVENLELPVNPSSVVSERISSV
Put plainly: Selectivity interaction (Panel of kinases, GPCRs, ion channels and transporters (enzymatic assay)) EUB0000266bCl HTR2C.

The nature of experiment [12]: Selectivity interaction (KinomeScan (DiscoverX)) EUB0000229b PKNB. Particulars: at 1 µM.
The target of experiment [13] is Serine/threonine-protein kinase OSR1 (Homo sapiens) (UniProt O95747). Put plainly: Selectivity interaction (Kinase panel (KiNativ target engagement assay in Jurkat cells)) EUB0001635a OXSR1. Type of experiment: cell-based. Particulars: Selectivity number of off-targets 0.0, Selectivity number of targets 233.0, Source Knowledge https://www.sciencedirect.com/science/article/pii/S2451945619300674?via%3Dihub, at 1 µM.
Chain of Serine/threonine-protein kinase OSR1 (Homo sapiens) (O95747 2-527 limits assumed): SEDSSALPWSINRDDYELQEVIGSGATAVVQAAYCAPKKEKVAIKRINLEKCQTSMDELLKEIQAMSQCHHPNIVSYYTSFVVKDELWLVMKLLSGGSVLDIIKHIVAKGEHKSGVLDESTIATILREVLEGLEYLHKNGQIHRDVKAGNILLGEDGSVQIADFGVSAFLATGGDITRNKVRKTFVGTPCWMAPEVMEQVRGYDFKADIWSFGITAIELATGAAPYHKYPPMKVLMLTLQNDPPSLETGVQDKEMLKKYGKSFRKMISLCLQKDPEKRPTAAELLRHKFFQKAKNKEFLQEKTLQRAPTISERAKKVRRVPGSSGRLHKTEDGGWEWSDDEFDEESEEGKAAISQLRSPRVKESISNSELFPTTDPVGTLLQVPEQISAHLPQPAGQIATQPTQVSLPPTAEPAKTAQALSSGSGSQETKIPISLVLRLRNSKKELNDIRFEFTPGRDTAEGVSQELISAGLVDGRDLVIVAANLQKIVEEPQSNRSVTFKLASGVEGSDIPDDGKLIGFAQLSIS

Chain of Cyclin-dependent kinase 11B (Homo sapiens) (P21127 whole entry): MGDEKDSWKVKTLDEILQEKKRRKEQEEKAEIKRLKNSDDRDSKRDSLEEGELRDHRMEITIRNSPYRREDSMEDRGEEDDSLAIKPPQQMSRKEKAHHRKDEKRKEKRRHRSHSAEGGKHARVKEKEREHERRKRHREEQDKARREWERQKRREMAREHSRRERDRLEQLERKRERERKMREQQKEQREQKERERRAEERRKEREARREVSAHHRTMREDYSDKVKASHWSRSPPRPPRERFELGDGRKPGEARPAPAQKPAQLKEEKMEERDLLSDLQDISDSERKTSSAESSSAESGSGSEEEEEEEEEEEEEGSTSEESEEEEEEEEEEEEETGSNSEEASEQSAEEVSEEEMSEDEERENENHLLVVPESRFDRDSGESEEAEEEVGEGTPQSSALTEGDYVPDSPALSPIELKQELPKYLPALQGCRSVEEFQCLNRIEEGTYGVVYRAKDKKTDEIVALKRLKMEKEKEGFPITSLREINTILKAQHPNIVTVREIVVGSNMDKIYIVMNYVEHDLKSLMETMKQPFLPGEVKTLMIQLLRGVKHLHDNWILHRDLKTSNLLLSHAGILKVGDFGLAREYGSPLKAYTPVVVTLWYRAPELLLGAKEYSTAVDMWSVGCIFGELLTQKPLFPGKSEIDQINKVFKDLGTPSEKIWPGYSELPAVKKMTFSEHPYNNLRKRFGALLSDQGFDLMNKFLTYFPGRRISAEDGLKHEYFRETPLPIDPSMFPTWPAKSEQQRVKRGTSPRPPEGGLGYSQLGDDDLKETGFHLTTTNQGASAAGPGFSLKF
Chain of Phosphatidylinositol 4-phosphate 3-kinase C2 domain-containing subunit beta (Homo sapiens) (O00750 whole entry, the tested form may be a part): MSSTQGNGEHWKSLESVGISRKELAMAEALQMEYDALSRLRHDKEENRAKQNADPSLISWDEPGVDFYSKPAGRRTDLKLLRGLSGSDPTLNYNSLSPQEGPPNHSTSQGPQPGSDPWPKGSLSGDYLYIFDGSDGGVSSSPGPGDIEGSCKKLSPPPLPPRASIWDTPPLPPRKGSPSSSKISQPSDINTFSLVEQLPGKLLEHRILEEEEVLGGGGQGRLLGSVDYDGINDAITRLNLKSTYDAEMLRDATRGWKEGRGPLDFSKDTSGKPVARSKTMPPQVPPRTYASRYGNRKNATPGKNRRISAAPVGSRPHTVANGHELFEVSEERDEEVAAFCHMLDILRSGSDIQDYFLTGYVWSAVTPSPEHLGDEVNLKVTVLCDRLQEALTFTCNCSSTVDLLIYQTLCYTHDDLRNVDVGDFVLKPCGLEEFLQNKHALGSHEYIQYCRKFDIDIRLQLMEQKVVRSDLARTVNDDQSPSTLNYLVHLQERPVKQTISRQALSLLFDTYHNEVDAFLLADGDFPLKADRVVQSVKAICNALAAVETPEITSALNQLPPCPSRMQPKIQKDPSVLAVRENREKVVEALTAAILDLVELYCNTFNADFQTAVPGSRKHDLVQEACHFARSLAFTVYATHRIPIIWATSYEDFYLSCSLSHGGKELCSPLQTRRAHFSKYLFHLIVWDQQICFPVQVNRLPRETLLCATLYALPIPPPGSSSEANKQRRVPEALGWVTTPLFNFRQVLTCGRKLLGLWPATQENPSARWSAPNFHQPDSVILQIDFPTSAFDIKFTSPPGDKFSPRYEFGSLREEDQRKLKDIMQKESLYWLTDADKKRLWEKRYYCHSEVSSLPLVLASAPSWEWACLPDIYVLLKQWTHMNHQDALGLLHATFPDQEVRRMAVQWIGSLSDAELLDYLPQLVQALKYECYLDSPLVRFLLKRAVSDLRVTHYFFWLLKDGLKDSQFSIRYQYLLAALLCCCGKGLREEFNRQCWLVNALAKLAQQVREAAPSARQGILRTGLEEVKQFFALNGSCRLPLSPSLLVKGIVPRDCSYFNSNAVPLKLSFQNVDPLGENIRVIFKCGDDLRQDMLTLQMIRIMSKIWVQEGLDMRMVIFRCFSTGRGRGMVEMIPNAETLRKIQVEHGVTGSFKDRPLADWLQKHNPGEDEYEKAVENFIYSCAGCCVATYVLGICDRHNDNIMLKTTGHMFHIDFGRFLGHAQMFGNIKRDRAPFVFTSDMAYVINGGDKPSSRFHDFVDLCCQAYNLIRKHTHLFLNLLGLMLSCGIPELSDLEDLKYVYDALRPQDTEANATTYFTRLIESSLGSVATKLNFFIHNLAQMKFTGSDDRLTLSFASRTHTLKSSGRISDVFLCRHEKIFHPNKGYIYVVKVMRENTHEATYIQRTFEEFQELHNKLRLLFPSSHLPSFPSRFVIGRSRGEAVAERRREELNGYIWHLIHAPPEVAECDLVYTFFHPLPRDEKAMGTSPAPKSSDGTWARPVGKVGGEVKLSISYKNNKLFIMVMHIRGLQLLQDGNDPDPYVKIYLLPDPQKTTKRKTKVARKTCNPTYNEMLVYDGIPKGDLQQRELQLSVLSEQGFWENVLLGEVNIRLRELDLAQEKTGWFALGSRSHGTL

Regarding `Cn1cc(-n2cnc3c(NCc4nc5cc(Cl)c(Cl)cc5[nH]4)nc(N4CCOCC4)nc32)cn1`, in experiment [1], the % of inhibition was -13.2%.
On to `COCC(=O)NC/C=C/c1ccc2ncnc(Nc3ccc(Oc4ccc(C)nc4)c(C)c3)c2c1` [CP-724714], for which the % of control in experiment [2] came to 88%.
With `CCN(CC)CCCCNc1ncc2cc(-c3cc(OC)cc(OC)c3)c(NC(=O)NC(C)(C)C)nc2n1`, the % of control in [3] was found to be 100%.
For `O=C(NOC[C@H](O)CO)c1ccc(F)c(F)c1Nc1ccc(I)cc1F`, in experiment [4], the % of control is 95%.
For the molecule `CNC(=O)Nc1ccc(-c2nc(N3CC4CCC(C3)O4)c3cnn(C4CCC5(CC4)OCCO5)c3n2)cc1`, the % of control in experiment [5] stood at 88%.
With `CN1Cc2nccc(-c3cn(C)nc3-c3ccc(F)cc3)c2C1=O`, the % of inhibition in experiment [6] was 6%.
With `COc1cc(Nc2nc(C)cc(-c3cnn4nc(OC)ccc34)n2)cc(C(F)(F)F)c1`, the % of control in [7] was 100%.
Take `Cc1ccc(-c2ccc3c(ccc4sc5c(c43)NC[C@@H](C)NC5=O)n2)cn1`: the % of inhibition in experiment [8] came out at 85%.
In [9], `CCC(=O)N1CCN(c2ccc(-n3c(=O)ccc4cnc5ccc(-c6cnc7ccccc7c6)cc5c43)cc2C(F)(F)F)CC1` displayed a % of control of 84%.
Turning to `CC(C)(O)[C@H](F)CN1Cc2cc(NC(=O)c3cnn4cccnc34)c(N3CCOCC3)cc2C1=O`, the dTM in [10] is 5 K.
As for `CCn1c(-c2nc3cc(C(=O)N4CCCC(N)C4)ccc3n2C)cc2ccccc21` (stereo not drawn), the pXC50 in [11] is less than 4.4 M.
Molecule `COc1cc(N(C)c2ccnc3ccc(C(F)(F)F)cc23)cc(OC)c1OC` yielded a % binding in [12] of 100%.
On to `C=CC(=O)Nc1ccc(C(=O)Nc2[nH]nc3c2CN(C(=O)N[C@H](CN(C)C)c2ccccc2)C3(C)C)cc1`, for which the % of engagement in experiment [13] worked out at 2.6%.

The values above are taken from ChEMBL document CHEMBL5465560, “Selectivity Literature for EUbOPEN Chemogenomic Library” (2024).
